Activity calls are given as the source filed them. The calls are words filed in the database; no cut-off is given here.
Key:
[1] = system: LX-2; assay: Anti-hepatic fibrosis activity in human LX2 cells assessed as inhibition of TGF-beta1 induced COL1A1 mRNA expression at 3 micromol/L incubated for 24 hrs by qPCR analysis; assay type: functional, cell-based; conditions: dose 3.0 µmol/L
[2] = system: LX-2; assay: Anti-hepatic fibrosis activity in human LX2 cells assessed as inhibition of TGFbeta1-induced FN protein expression at 1 uM incubated for 24 hrs by western blot analysis; assay type: functional, cell-based
[3] = system: LX-2; assay: Anti-hepatic fibrosis activity in human LX2 cells assessed as inhibition of TGFbeta1-induced COL1A1 protein expression at 1 uM incubated for 24 hrs by western blot analysis; assay type: functional, cell-based
[4] = Anti-hepatic fibrosis activity in human LX2 cells assessed as inhibition of COL1A1 promoter activity at 25 micromol/L by luciferase reporter assay relative to control; assay type: functional; conditions: LX-2, dose 25 µmol/L
[5] = system: LX-2; assay: Anti-hepatic fibrosis activity in human LX2 cells assessed as inhibition of TGFbeta1-induced FN protein expression at 3 uM incubated for 24 hrs by western blot analysis; assay type: functional, cell-based
[6] = Inhibition of JAK1/STAT1/STAT3 signaling pathway in human LX2 cells assessed as decrease in TGF-beta induced STAT3 phosphorylation level at 1 uM incubated for 24 hrs by Western blot analysis; assay type: cell-based
[7] = Inhibition of JAK1/STAT1/STAT3 signaling pathway in human LX2 cells assessed as decrease in TGF-beta induced JAK1 phosphorylation level at 1 uM incubated for 24 hrs by Western blot analysis; assay type: cell-based
[8] = Inhibition of JAK1/STAT1/STAT3 signaling pathway in human LX2 cells assessed as decrease in TGF-beta induced STAT1 phosphorylation level at 1 uM incubated for 24 hrs by Western blot analysis; assay type: cell-based
[9] = system: AML12; assay: Cytotoxicity against mouse AML12 cells assessed as mortality rate at 1 to 30 uM incubated for 24 hrs by Sulfonyl Rhodamine B assay; assay type: toxicity, cell-based; conditions: aml12, 24 h, dose 1-30 µM
[10] = system: LX-2; assay: Anti-hepatic fibrosis activity in human LX2 cells assessed as inhibition of TGFbeta1-induced TIMP-1 protein expression at 3 uM incubated for 24 hrs by western blot analysis; assay type: functional, cell-based
[11] = system: LX-2; assay: Anti-hepatic fibrosis activity in human LX2 cells assessed as inhibition of TGF-beta1 induced MMP-2 mRNA expression at 3 micromol/L incubated for 24 hrs by qPCR analysis; assay type: functional, cell-based; conditions: dose 3.0 µmol/L
[12] = system: LX-2; assay: Anti-hepatic fibrosis activity in human LX2 cells assessed as inhibition of TGFbeta1-induced alpha-SMA protein expression at 1 uM incubated for 24 hrs by western blot analysis; assay type: functional, cell-based
[13] = system: LX-2; assay: Anti-hepatic fibrosis activity in human LX2 cells assessed as inhibition of TGFbeta1-induced TIMP-1 protein expression at 1 uM incubated for 24 hrs by western blot analysis; assay type: functional, cell-based
[14] = system: LX-2; assay: Anti-hepatic fibrosis activity in human LX2 cells assessed as inhibition of TGFbeta1-induced COL1A1 protein expression at 3 uM incubated for 24 hrs by western blot analysis; assay type: functional, cell-based
[15] = Cytotoxicity against human LX2 cells assessed as mortality rate at 1 to 30 uM incubated for 24 hrs by Sulfonyl Rhodamine B assay; assay type: toxicity, cell-based; conditions: lx-2, 24 h, dose 1-30 µM
[16] = system: LX-2; assay: Anti-hepatic fibrosis activity in human LX2 cells assessed as inhibition of TGFbeta1-induced alpha-SMA protein expression at 3 uM incubated for 24 hrs by western blot analysis; assay type: functional, cell-based
[17] = system: LX-2; assay: Anti-hepatic fibrosis activity in human LX2 cells assessed as inhibition of TGF-beta1 induced intrinsic TGF-beta1 mRNA expression at 3 micromol/L incubated for 24 hrs by qPCR analysis; assay type: functional, cell-based; conditions: dose 3.0 µmol/L

| SMILES | inhibition [1] | inhibition [2] | inhibition [3] | inhibition at 25 µM [4] [%] | inhibition [5] | inhibition [6] | inhibition [7] | inhibition [8] | Activity [9] | inhibition [10] | inhibition [11] | inhibition [12] | inhibition [13] | inhibition [14] | Activity [15] | inhibition [16] | inhibition [17] |
| --- | --- | --- | --- | --- | --- | --- | --- | --- | --- | --- | --- | --- | --- | --- | --- | --- | --- |
| O=C(Nc1ccccc1NS(=O)(=O)c1ccc([N+](=O)[O-])cc1)c1cc(Cl)c(Cl)c(Cl)c1 | Active | Active | Active | 54.8 | Active | Active | Active | Active | Non-Toxic | Active | Active | Active | Active | Active | Non-Toxic | Active | Active |
| O=C(Nc1ccccc1NS(=O)(=O)c1cccc(C(F)(F)F)c1)c1cc(Cl)c(Cl)c(Cl)c1 | Active | Active | Active | 60.7 |  | Active | Active | Active | Non-Toxic |  | Active | Active | Active |  | Non-Toxic |  | Active |
| O=C(Nc1cc(Cl)c(Cl)c(Cl)c1)c1ccccc1NS(=O)(=O)c1cccc([N+](=O)[O-])c1 | Active |  |  | 35.9 |  | Active | Active | Active | Non-Toxic |  |  |  |  |  | Non-Toxic |  |  |
| O=C(Nc1ccccc1NS(=O)(=O)c1cccc([N+](=O)[O-])c1)c1cc(Cl)c(Cl)c(Cl)c1 | Active | Active | Active | 61.7 | Active | Active | Active | Active | Non-Toxic | Active | Active | Active | Active | Active | Toxic | Active | Active |

— ChEMBL document CHEMBL5257100, “Discovery and development of benzene sulfonamide derivatives as anti-hepatic fibrosis agents” (Bioorg Med Chem Lett, 2023)
